Experiments:
[1] = system: lung cancer in patients with idiopathic pulmonary fibrosis; experiment: Lung cancer prevention in idiopathic pulmonary fibrosis patients allocated to pirfenidone or non-pirfenidone group; type: in vivo, human; details: for Effect on risk of incidence of lung cancer: logistic regression analysis; for Accumulated incidence of lung cancer: FIG. 1
From the text: Thus, the present inventors evaluated the cancer chemoprevention effect of pirfenidone in idiopathic pulmonary fibrosis patients who are said to have a high risk factor of carcinogenesis. […] This efficacy was not explained by its effectiveness on idiopathic pulmonary fibrosis, and is therefore a novel activity of pirfenidone.
87 in the pirfenidone group (83 idiopathic pulmonary fibrosis, four nonspecific interstitial pneumonia) and 232 in the non-pirfenidone group (213 idiopathic pulmonary fibrosis, 18 nonspecific interstitial pneumonia, and one patient of desquamative interstitial pneumonia). The patients in the pirfenidone group received pirfenidone for 12-75 months (an average of 27.9±14.7 months). As a result, the incidence of lung cancer in the pirfenidone group was 2, whereas in the non-pirfenidone group it was 49. The duration of observation period in the pirfenidone group was 65.5±42.6 months, whereas in the control group it was 57.1±37.5 months. In addition, among 73 deaths in the non-pirfenidone group, 11 (4.7%) patients died by lung cancer, whereas among 29 deaths in the pirifenidone group, one (1.2%) patient died by lung cancer.
The accumulated incidences of lung cancer in patients with idiopathic pulmonary fibrosis not treated with pirfenidone after 1, 5, and 10 years were 0.9%, 18.3%, and 26.8%, whereas in patients treated with pirfenidone after 1, 5, and 10 years the accumulated incidences of lung cancer were 0%, 2.5%, and 6.4%.
The risk factors of incidence of lung cancer were analyzed using logistic regression analysis. As for the variables, backgrounds such as age, sex, number of packs of cigarettes smoked per day by the number of years the person has smoked (pack year), current smoking, pulmonary emphysema, stage of idiopathic pulmonary fibrosis, lung functions (% vital capacity(VC), and forced expiratory volume in 1 second as percent of forced vital capacity; FEV 1%), respiratory function (carbon monoxide lung diffusing capacity; % DLCO), and arterial oxygen partial pressure (PAO2); home oxygen therapy (use/no use), pirfenidone (use/no use), prednisolone (use/no use), N-acetyl cysteine (use/no use) and so forth were used. […] Then, the factors affecting the incidence of lung cancer were analyzed using multivariate Cox proportion hazard mode. Four variables were found as affecting factors. […] This supports the lung cancer protective efficacy of pirfenidone.

malignant glioma cells = details: non-patent document 4; cited from earlier work
[2] = system: acute exacerbation in patients with idiopathic pulmonary fibrosis; details: pre-treatment; non-patent document 6; cited from earlier work
[3] = system: fibrosis caused by pancreatic cancer; details: non-patent document 5; cited from earlier work

Compound | Effect on risk of incidence of lung cancer ([1]; use/no use) | Proliferation of malignant glioma cells (malignant glioma cells) | Acute exacerbation caused by lung cancer surgery [2] | Effect on fibrosis caused by pancreatic cancer [3] | Death by cancer (lung cancer), % ([1]; 87 patients in pirfenidone group) [%] | Death by cancer (lung cancer), % ([1]; 87 patients in pirfenidone group, listed as pirifenidone) [%] | Incidence of lung cancer, % ([1]; 87 patients in pirfenidone group, observation 65.5 ± 42.6 months, treatment 12-75 months) [%] | Accumulated incidence of lung cancer ([1]; after 1 year) [%] | Accumulated incidence of lung cancer ([1]; after 5 years) [%] | Accumulated incidence of lung cancer ([1]; after 10 years) [%] | Effect on risk of lung cancer ([1]; multivariate Cox proportion hazard model, in words) | Hazard ratio, risk of lung cancer ([1]; multivariate Cox proportion hazard model, use/no use)
CC(=O)N[C@@H](CS)C(=O)O [N-acetyl cysteine] | significantly decrease the risk factors of incidence of lung cancer | – | – | – | – | – | – | – | – | – | – | –
Cc1ccc(=O)n(-c2ccccc2)c1 [Pirfenidone, 5-methyl-1-phenyl-2-(1H)-pyridone] | significantly decrease the risk factors of incidence of lung cancer | inhibited proliferation | acute exacerbation was inhibited | inhibitory effects on fibrosis | 1.1 | 1.2 | 2.3 | 0 | 2.5 | 6.4 | only factor decreasing the risk of lung cancer | 0.128

Source: patent US20170224667A1, “CANCER CHEMOPREVENTIVE AGENT” (KDL, Inc., priority 2014, published 2017)
